Reference: US8691865B2 (AbbVie Inc., priority 2008, dated 2014)
Like-named read-outs stand apart in the source and are kept apart here.

Target: human Cav2.2 (Homo sapiens, UniProt Q00975)
Assay: Assessment of calcium channel activity using FLIPR (Ca2+ influx in IMR32 cells)
Type: cell-based
Procedure, shortened: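 Human neuroblastoma IMR32 cells were seeded at 1−1.2×10^5 cells/well and cultured 48 h at 37 °C before FLIPR calcium influx measurement. Percent inhibition at each concentration was calculated against the no-inhibitor signal, and IC50 came from sigmoidal dose-response fits.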

[1] = read-out: IC50 (μM) or percent inhibition (* indicates 3 minute incubation, otherwise 60 minute), IC50, 60 minute pre-incubation with compound, IMR32 cells, 80 mM KCl depolarization

Sequence of human Cav2.2 (Q00975 whole entry): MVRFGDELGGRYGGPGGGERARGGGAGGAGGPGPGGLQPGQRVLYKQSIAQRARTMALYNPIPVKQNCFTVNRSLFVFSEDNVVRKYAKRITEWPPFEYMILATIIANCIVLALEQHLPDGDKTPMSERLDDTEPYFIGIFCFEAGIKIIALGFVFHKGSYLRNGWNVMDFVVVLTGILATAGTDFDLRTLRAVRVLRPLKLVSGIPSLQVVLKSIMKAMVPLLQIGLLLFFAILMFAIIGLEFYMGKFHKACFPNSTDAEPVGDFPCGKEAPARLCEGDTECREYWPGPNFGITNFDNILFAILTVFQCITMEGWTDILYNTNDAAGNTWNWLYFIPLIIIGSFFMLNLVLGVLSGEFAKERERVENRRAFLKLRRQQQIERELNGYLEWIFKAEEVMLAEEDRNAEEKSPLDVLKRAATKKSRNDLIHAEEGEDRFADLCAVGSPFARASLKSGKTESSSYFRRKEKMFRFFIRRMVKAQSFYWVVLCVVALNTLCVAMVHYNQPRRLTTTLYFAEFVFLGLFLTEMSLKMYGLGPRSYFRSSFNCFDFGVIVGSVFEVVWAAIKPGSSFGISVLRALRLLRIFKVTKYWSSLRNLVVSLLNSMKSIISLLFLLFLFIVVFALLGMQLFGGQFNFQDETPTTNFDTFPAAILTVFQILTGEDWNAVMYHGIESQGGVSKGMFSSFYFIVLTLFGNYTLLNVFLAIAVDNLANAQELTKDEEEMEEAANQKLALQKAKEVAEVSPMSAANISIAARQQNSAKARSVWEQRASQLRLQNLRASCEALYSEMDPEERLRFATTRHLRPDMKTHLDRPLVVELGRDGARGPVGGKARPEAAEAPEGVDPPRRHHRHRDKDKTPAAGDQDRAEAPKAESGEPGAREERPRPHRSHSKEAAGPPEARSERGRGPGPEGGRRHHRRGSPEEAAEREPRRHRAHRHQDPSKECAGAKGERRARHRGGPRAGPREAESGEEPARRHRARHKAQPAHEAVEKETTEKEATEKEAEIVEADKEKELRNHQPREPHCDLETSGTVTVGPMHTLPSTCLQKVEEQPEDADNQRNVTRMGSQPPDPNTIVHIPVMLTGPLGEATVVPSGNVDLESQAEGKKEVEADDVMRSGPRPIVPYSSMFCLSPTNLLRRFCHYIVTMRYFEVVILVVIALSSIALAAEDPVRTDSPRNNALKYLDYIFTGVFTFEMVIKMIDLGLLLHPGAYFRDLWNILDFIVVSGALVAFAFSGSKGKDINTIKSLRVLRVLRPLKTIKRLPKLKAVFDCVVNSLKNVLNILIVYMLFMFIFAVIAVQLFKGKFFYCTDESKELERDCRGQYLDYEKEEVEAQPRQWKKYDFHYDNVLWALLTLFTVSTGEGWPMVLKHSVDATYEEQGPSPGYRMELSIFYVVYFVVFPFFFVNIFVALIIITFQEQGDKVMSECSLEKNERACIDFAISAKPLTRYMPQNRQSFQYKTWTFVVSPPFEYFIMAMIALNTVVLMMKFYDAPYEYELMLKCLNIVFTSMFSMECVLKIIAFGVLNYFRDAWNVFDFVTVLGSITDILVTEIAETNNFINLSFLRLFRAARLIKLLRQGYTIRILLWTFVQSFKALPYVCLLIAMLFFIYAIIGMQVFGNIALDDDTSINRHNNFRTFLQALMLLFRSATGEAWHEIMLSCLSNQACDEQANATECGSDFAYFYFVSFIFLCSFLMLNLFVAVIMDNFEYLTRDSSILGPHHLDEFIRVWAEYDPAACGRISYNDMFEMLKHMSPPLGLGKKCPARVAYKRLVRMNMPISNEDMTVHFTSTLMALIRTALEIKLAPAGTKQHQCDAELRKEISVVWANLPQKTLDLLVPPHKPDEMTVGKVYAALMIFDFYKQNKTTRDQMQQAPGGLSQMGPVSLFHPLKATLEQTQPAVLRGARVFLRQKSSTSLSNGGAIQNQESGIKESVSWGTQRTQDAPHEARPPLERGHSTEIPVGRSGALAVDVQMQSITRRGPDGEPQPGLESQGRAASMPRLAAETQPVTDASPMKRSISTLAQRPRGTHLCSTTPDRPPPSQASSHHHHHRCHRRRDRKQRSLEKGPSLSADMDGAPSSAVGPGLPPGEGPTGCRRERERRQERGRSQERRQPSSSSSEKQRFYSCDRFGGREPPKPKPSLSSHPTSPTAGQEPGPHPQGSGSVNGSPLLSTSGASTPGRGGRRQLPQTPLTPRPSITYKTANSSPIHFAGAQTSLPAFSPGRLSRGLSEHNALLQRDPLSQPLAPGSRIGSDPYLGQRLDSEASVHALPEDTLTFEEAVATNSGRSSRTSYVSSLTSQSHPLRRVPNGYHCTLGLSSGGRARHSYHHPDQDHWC
Sequence of human Cav2.2 (P54289 25-956 partner limits assumed): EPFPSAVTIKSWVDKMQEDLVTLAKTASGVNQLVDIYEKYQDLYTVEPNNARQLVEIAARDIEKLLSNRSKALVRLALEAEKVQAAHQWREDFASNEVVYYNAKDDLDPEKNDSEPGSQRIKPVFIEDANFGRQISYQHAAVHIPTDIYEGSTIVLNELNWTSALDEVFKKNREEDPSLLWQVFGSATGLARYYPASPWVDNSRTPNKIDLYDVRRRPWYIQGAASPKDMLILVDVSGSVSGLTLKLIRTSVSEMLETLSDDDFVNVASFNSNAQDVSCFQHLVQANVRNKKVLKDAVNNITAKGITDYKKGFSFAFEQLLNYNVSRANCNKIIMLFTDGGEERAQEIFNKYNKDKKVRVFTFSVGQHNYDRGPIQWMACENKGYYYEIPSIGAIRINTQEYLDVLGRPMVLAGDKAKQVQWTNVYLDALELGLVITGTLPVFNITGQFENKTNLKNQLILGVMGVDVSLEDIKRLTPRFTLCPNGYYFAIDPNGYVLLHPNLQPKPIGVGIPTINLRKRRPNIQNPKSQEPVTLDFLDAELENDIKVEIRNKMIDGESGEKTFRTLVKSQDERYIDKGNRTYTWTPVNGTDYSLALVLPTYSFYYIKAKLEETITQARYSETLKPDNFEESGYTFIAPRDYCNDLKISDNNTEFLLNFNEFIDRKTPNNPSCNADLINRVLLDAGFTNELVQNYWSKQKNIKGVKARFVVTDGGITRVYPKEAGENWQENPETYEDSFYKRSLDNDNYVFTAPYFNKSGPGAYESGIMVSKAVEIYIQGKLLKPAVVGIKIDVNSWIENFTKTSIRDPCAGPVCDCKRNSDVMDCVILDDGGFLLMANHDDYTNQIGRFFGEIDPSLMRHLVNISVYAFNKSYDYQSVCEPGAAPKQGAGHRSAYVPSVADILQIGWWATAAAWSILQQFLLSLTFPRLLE
Sequence of human Cav2.2 (P54289 957-1103 partner limits assumed): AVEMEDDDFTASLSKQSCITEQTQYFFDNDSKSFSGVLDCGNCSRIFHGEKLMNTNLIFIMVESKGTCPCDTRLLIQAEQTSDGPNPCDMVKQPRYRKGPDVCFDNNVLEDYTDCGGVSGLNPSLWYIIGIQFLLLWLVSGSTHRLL
Sequence of human Cav2.2 (P54284 whole entry partner): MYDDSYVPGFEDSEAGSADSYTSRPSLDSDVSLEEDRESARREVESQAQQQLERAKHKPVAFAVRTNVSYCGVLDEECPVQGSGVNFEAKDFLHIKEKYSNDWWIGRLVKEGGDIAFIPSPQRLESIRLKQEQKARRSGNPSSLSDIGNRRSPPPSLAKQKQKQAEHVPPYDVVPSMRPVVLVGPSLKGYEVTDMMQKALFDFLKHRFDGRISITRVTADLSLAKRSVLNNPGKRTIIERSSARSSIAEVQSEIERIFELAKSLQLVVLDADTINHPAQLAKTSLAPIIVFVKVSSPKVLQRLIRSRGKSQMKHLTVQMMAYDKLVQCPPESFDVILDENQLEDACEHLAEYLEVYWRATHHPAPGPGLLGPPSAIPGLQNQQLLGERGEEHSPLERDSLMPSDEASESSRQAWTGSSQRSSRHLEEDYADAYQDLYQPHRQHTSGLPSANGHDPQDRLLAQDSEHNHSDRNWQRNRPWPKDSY

Molecule	IC50 [1] [µM]	IC50 [µM]	other results
O=C(N[C@H]1CC[C@H]2CN(Cc3ccc(C(F)(F)F)c(F)c3)C[C@H]21)C(C1CCCCC1)C1CCCCC1 [Example 58, 2,2-dicyclohexyl-N-{(3aS,4S,6aR)-2-[3-fluoro-4-(trifluoromethyl)benzyl]octahydrocyclopenta[c]pyrrol-4-yl}acetamide]	1.35	–	–
C[C@H](C(=O)N[C@@H]1CC[C@H]2CN(Cc3ccccc3)C[C@H]21)c1cccc(C(=O)c2ccccc2)c1 (relative stereo) [Example 13, (2S)-2-(3-benzoylphenyl)-N-[(3aS*,4R*,6aR*)-2-benzyloctahydrocyclopenta[c]pyrrol-4-yl]propanamide]	23.6	–	–
Cc1ccc(CN2C[C@@H]3CC[C@H](NC(=O)C(C4CCCCC4)C4CCCCC4)[C@@H]3C2)cc1 [Example 62, 2,2-dicyclohexyl-N-[(3aS,4S,6aR)-2-(4-methylbenzyl)octahydrocyclopenta[c]pyrrol-4-yl]acetamide]	1.64	–	–
CC(C)C[C@@H](C(=O)N[C@@H]1CC[C@H]2CN(S(C)(=O)=O)C[C@H]21)N1CCCC1 [Example 346, (2S)-4-methyl-N-[(3aS,4R,6aR)-2-(methylsulfonyl)octahydrocyclopenta[c]pyrrol-4-yl]-2-pyrrolidin-1-ylpentanamide]	–	> 30	–
N-(tert-butoxycarbonyl)-N-((3aR,4S,6aS)-2-{[3-(trifluoromethyl)phenyl]sulfonyl}octahydrocyclopenta[c]pyrrol-4-yl)-L-phenylalaninamide [Example 269]	1.9	–	–
CC(C)C[C@H](NCC(C)(C)C)C(=O)N[C@H]1CC[C@@H]2CN(Cc3ccccc3)C[C@@H]21 [Example 244, N^1-[(3aR,4S,6aS)-2-benzyloctahydrocyclopenta[c]pyrrol-4-yl]-N^2-neopentyl-L-leucinamide]	9.11	–	–
O=S(=O)(N[C@@H]1CC[C@H]2CN(CCCCCC(c3ccc(F)cc3)c3ccc(F)cc3)C[C@H]21)c1cccc(C(F)(F)F)c1 [Example 191, N-{(3aS,4R,6aR)-2-[6,6-bis(4-fluorophenyl)hexyl]octahydrocyclopenta[c]pyrrol-4-yl}-3-(trifluoromethyl)benzenesulfonamide]	0.51	–	–
CCC[C@H](NC)C(=O)N[C@H]1CC[C@H]2CN(Cc3ccccc3)C[C@H]21 [Example 359, N^1-[(3aS,4S,6aR)-2-benzyloctahydrocyclopenta[c]pyrrol-4-yl]-N^2-methyl-L-norvalinamide]	–	> 30	–
CC(C)C[C@H](NS(=O)(=O)C1CC1)C(=O)N[C@H]1CC[C@H]2CN(Cc3cccc(C(F)(F)F)c3)C[C@H]21 [Example 174, N^2-(cyclopropylsulfonyl)-N^1-{(3aS,4S,6aR)-2-[3-(trifluoromethyl)benzyl]octahydrocyclopenta[c]pyrrol-4-yl}-L-leucinamide]	1.04	–	–
C[C@H](C(=O)N[C@H]1CC[C@H]2CN(Cc3ccccc3)C[C@H]21)c1cccc(C(=O)c2ccccc2)c1 (relative stereo) [Example 12, (2S)-2-(3-benzoylphenyl)-N-[(3aS*,4S*,6aR*)-2-benzyloctahydrocyclopenta[c]pyrrol-4-yl]propanamide]	–	1.22	–
CC(C)C[C@H](NC(=O)NC1CCCC1)C(=O)N[C@@H]1CC[C@H]2CN(Cc3cccc(C(F)(F)F)c3)C[C@H]21 [Example 181, N^2-[(cyclopentylamino)carbonyl]-N^1-{(3aS,4R,6aR)-2-[3-(trifluoromethyl)benzyl]octahydrocyclopenta[c]pyrrol-4-yl}-L-leucinamide]	0.94	–	–
CC(C)C(C(=O)N[C@H]1CC[C@@H]2CN(CC3CCCCC3)C[C@@H]21)c1ccccc1 (stereo partly drawn) [Example 83, N-[(3aR,4S,6aS)-2-(cyclohexylmethyl)octahydrocyclopenta[c]pyrrol-4-yl]-3-methyl-2-phenylbutanamide]	–	–	IC50 (IC50 (μM) or percent inhibition (* indicates 3 minute incubation, otherwise 60 minute), IC50, 3 minute pre-incubation (*), IMR32 cells, 80 mM KCl depolarization): 2.6 µM

Further lines, with some results ahead:

IC50 [1] [µM]	IC50 [µM]	Molecule	other results
2.23	–	CC(C)(C)CN[C@@H](CC(C)(C)C)C(=O)N[C@H]1CC[C@@H]2CN(S(=O)(=O)c3ccc(C(F)(F)F)cc3)C[C@@H]21 [Example 505, 4-methyl-N^2-neopentyl-N^1-((3aR,4S,6aS)-2-{[4-(trifluoromethyl)phenyl]sulfonyl}octahydrocyclopenta[c]pyrrol-4-yl)-L-leucinamide]	–
–	2.39	CN[C@@H](CC(C)C)C(=O)N[C@H]1CC[C@@H]2CN(c3ccccc3Cl)C[C@@H]21 [Example 634, N-[(3aR,4S,6aS)-2-(2-chlorophenyl)octahydrocyclopenta[c]pyrrol-4-yl]-N^2-methyl-L-leucinamide]	–
–	1.32	O=C(N[C@H]1CC[C@@H]2CN(c3cccc(C(F)(F)F)c3F)C[C@@H]21)[C@@H]1C[C@@H](F)CN1 [Example 623, (4R)-4-fluoro-N-{(3aR,4S,6aS)-2-[2-fluoro-3-(trifluoromethyl)phenyl]octahydrocyclopenta[c]pyrrol-4-yl}-L-prolinamide]	–
15.3	–	O=C(N[C@@H]1CC[C@H]2CN(S(=O)(=O)c3ccc(F)cc3)C[C@H]21)[C@@H]1CCCCN1 [Example 399, (2S)-N-{(3aS,4R,6aR)-2-[(4-fluorophenyl)sulfonyl]octahydrocyclopenta[c]pyrrol-4-yl}piperidine-2-carboxamide]	–
–	2.53	N[C@@H](CC1CC1)C(=O)N[C@H]1CC[C@@H]2CN(c3ccc(OC(F)(F)F)cc3)C[C@@H]21 [Example 776, 3-cyclopropyl-N-{(3aR,4S,6aS)-2-[4-(trifluoromethoxy)phenyl]octahydrocyclopenta[c]pyrrol-4-yl}-L-alaninamide]	–
–	> 30	CN[C@@H](CC(C)C)C(=O)N[C@H]1CC[C@H]2CN(Cc3ccccc3)C[C@H]21 [Example 360, N^1-[(3aS,4S,6aR)-2-benzyloctahydrocyclopenta[c]pyrrol-4-yl]-N^2-methyl-L-leucinamide]	–
–	3.54	O=S(=O)(Cc1ccc(Cl)cc1)N[C@H]1CC[C@@H]2CN(c3cccc(C(F)(F)F)n3)C[C@@H]21 [Example 717, 1-(4-chlorophenyl)-N-{(3aR,4S,6aS)-2-[6-(trifluoromethyl)pyridin-2-yl]octahydrocyclopenta[c]pyrrol-4-yl}methanesulfonamide]	–
–	1.8	CN[C@@H](CC(C)C)C(=O)N[C@H]1CC[C@@H]2CN(c3ccc(OC(F)(F)F)c(F)c3)C[C@@H]21 [Example 657, N-{(3aR,4S,6aS)-2-[3-fluoro-4-(trifluoromethoxy)phenyl]octahydrocyclopenta[c]pyrrol-4-yl}-N^2-methyl-L-leucinamide]	–
–	0.99	CN[C@@H](CC(C)C)C(=O)N[C@H]1CC[C@@H]2CN(c3ccc(F)c(C(F)(F)F)c3)C[C@@H]21 [Example 621, N-{(3aR,4S,6aS)-2-[4-fluoro-3-(trifluoromethyl)phenyl]octahydrocyclopenta[c]pyrrol-4-yl}-N^2-methyl-L-leucinamide]	–
–	0.45	CN[C@@H](CC(C)C)C(=O)N[C@H]1CC[C@@H]2CN(c3cccc(C(F)(F)F)n3)C[C@@H]21 [Example 590, N^2-methyl-N-{(3aR,4S,6aS)-2-[6-(trifluoromethyl)pyridin-2-yl]octahydrocyclopenta[c]pyrrol-4-yl}-L-leucinamide]	–
–	3.77	CN[C@@H](CC(C)C)C(=O)N[C@H]1CC[C@@H]2CN(c3ccc(C#N)cc3)C[C@@H]21 [Example 647, N-[(3aR,4S,6aS)-2-(4-cyanophenyl)octahydrocyclopenta[c]pyrrol-4-yl]-N^2-methyl-L-leucinamide]	–
–	5.11	CC[C@H](NC(C)C)C(=O)N[C@H]1CC[C@@H]2CN(c3ccc(C(F)(F)F)cc3)C[C@@H]21 [Example 762, (2S)-2-(isopropylamino)-N-{(3aR,4S,6aS)-2-[4-(trifluoromethyl)phenyl]octahydrocyclopenta[c]pyrrol-4-yl}butanamide]	–
–	11.9	CN[C@@H](CC(C)C)C(=O)N[C@H]1CC[C@@H]2CN(c3ccnc(C(F)(F)F)n3)C[C@@H]21 [Example 723, N^2-methyl-N-{(3aR,4S,6aS)-2-[2-(trifluoromethyl)pyrimidin-4-yl]octahydrocyclopenta[c]pyrrol-4-yl}-L-leucinamide]	–
–	2.22	O=C(N[C@H]1CC[C@@H]2CN(c3ccc(C(F)(F)F)cn3)C[C@@H]21)[C@@H]1C[C@@H]2CCCC[C@@H]2N1 [Example 603, (2S,3aS,7aS)-N-{(3aR,4S,6aS)-2-[5-(trifluoromethyl)pyridin-2-yl]octahydrocyclopenta[c]pyrrol-4-yl}octahydro-1H-indole-2-carboxamide]	–
8.37	–	CCC[C@H](NC)C(=O)N[C@H]1CC[C@@H]2CN(S(=O)(=O)c3ccc(C#N)cc3)C[C@@H]21 [Example 536, N^1-{(3aR,4S,6aS)-2-[(4-cyanophenyl)sulfonyl]octahydrocyclopenta[c]pyrrol-4-yl}-N^2-methyl-L-norvalinamide]	–
2.26	–	O=S(=O)(c1cccc(C(F)(F)F)c1)N1C[C@H]2CC[C@H](NC(c3ccccc3)c3ccccc3)[C@H]2C1 [Example 468, (3aR,4S,6aS)-N-benzhydryl-2-{[3-(trifluoromethyl)phenyl]sulfonyl}octahydrocyclopenta[c]pyrrol-4-amine]	–
–	4	FC(F)(F)c1cccc(N2C[C@H]3CC[C@H](NCc4c[nH]nn4)[C@H]3C2)n1 [Example 694, (3aR,4S,6aS)-N-(1H-1,2,3-triazol-4-ylmethyl)-2-[6-(trifluoromethyl)pyridin-2-yl]octahydrocyclopenta[c]pyrrol-4-amine]	–
–	4.96	O=S(=O)(N[C@H]1CC[C@@H]2CN(c3cccc(C(F)(F)F)n3)C[C@@H]21)c1ccc(Cl)cc1 [Example 700, 4-chloro-N-{(3aR,4S,6aS)-2-[6-(trifluoromethyl)pyridin-2-yl]octahydrocyclopenta[c]pyrrol-4-yl}benzenesulfonamide]	–
–	0.48	FC(F)(F)c1cccc(N2C[C@H]3CC[C@H](NCc4cccc5nsnc45)[C@H]3C2)n1 [Example 728, (3aR,4S,6aS)-N-(2,1,3-benzothiadiazol-4-ylmethyl)-2-[6-(trifluoromethyl)pyridin-2-yl]octahydrocyclopenta[c]pyrrol-4-amine]	–
